Consider three molecules from patent EP4491627A1, “SYNTHETIC CA[…] ON CHROMENO[…] AND USE THEREOF” (Consejo Superior De Investigaciones Científicas, priority 2023, dated 2025).

For the experiment, the system named is primary neuronal cultures. Briefly: cAMP assay in primary neuronal cultures. In kind it is cell-based, Sprague Dawley rats. The conditions noted are these: primary cultures of cortical neurons; Figure 5. How it is done:
• Fig. 1. Graphics of the dose-response corresponding to the HTFR (Homogeneous Time Resolved Fluorescence) assays performed with chromenopyrimidines Example 1, Example 2 and Example 3. A) Competition assay snap-CB1; red ligand used at 100 nM; B) Competition assay snap-CB2; red ligand used at 20 nM. • Fig. 2. cAMP (Cyclic adenosine monophosphate) experiments performed with novel chromenopyrimidines (Example 1, Example 2 and Example 3). A) In HEK293 cells transfected with CB1; B) In HEK293 cells transfected with CB2. • Fig. 3. Graphics of the dose-response corresponding to the MAPK (mitogen-activated protein kinase) experiments performed with novel chromenopyrimidines (Example 1, Example 2 and Example 3). A) In HEK293 cells transfected with CB1; B) In HEK293 cells transfected with CB2. • Fig. 4. Graphics of the dose-response corresponding to the β-arrestin2 recruitment assays performed with Example 1, Example 2 and Example 3. A) In HEK293 cells transfected with CB1; B) In HEK293 cells transfected with CB2. • Fig. 5. Graphics of the dose-response corresponding to the cAMP assays performed with Example 1, Example 2 and Example 3 in neurons. • Fig. 6. Graphics of the dose-response of reference cannabinoids ACEA and anandamide in cAMP and MAPK assays in HEK293-CB1 cells. • Fig. 7. […]
In the present invention, cannabinoid affinity was evaluated using Homogeneous Time Resolved Fluorescence (HTFR) binding assays. Cannabinoid activity was assessed using an array of functional assays including cAMP, MAPK and barrestin2 recruitment in CB1 and CB2 transfected HEK293 cells. […]
Two hours before initiating the experiment, HEK-293T cells medium was replaced by serum-starved DMEM medium. […] Readings were performed after 60 min incubation at 25°. Homogeneous time-resolved fluorescence energy transfer (HTRF) measures were performed using the Lance Ultra cAMP kit (PerkinElmer, Waltham, MA, USA). Fluorescence at 665 nm was analysed on a PHERAstar Flagship microplate reader equipped with an HTRF optical module (BMG Lab technologies, Offenburg, Germany). […]
Turning to `CCCCCCC(C)(C)c1cc(OC)c2c(c1)OC(C)(C)c1cncnc1-2` [Example 2, 8-(1,1-Dimethylheptyl)-10-methoxy-5,5-dimethylchromeno[4,3-d]pyrimidine], the “cannabinoid agonistic activity in primary neuronal cultures using cAMP assays” value is “cannabinoid agonistic activity”.
For `CCCCCCC(C)(C)c1cc(OCc2ccccc2)c2c(c1)OC(C)(C)c1cncnc1-2` [Example 3, 10-Benzyloxy-8-(1,1-dimethylheptyl)-5,5-dimethylchromeno[4,3-d]pyrimidine] the value was “cannabinoid agonistic activity”; for `CCCCCCC(C)(C)c1cc(O)c2c(c1)OC(C)(C)c1cncnc1-2` [Example 1, 8-(1,1-Dimethylheptyl)-5,5-dimethylchromeno[4,3-d]pyrimidin-10-ol], “cannabinoid agonistic activity”.
